18 molecules from patent US20230069174A1, “NITROGEN-CONTAINING HETEROCYCLIC AUTOTAXIN INHIBITOR, AND COMPOSITION CONTAINING SAME AND USE THEREOF” (SICHUAN HAISCO PHARMACEUTICAL CO., LTD., priority 2019, published 2023) can be followed below.

The target in this test is T1, ATX (Homo sapiens, UniProt Q13822).
T1 construct: ATX activity was detected by detecting LPA production in pooled human plasma; from tissue; host or cells: pooled human plasma (heparin-anticoagulated whole blood, centrifuged)
In words: ATX inhibitory activity: LPA production in pooled human plasma, LC-MS-MS. Format: biochemical. Conditions: 37° C. 2 h. How it is done:
Experimental subject: compounds to be tested.
ATX activity was detected by detecting LPA production in pooled human plasma. Whole blood anticoagulated with heparin was collected and centrifuged, and then plasma was collected. 5-μL gradient dilution of the compound to be tested or DMSO was added to 95-μL plasma, incubated at 37° C. for 2 h, then a stop solution (40 mM disodium hydrogen phosphate buffer, containing a buffer solution (containing 30 mM citric acid, pH=4)) was added. LPA in plasma was detected by LC-MS-MS before and after incubation.
LPA (18:2) and (20:4) LC-MS-MS analytical method
Using a 1.5 mL EP tube, 3.0 μL of each of the working solutions for standard curve and quality control was taken and added to 27.0 μL of water. After homogeneously mixing by vortex, 400 μL of internal standard solution was added. After homogeneously mixing by vortex, the mixture was centrifuged at 4° C. for 10 min. 180 μL of supernatant was taken and added into a 96-well plate, waiting for sample injection.
10 μL of the compound to be tested (10 mg/ml) was precisely pipetted into an EP tube, 990 μL of DMSO solution was added, and the mixture was vortexed to completely dissolve to obtain a solution (100 μg/mL).
Inhibition rate of ATX receptor activity was calculated in the following way: inhibition rate %=((LPAc−LPA0)−(LPAi−LPA0))/(LPAc−LPA0)*100%, wherein LPAc was the LPA content in plasma after DMSO was added and incubated for 2 h, LPA0 was the LPA content in plasma before DMSO was added for incubation, and LPAi was the LPA content in plasma after test compound was added and incubated for 2 h.

Where [1] appears, read: LPA 18:2 readout, read-out: Inhibitory activity against ATX receptor, LPA 18:2 IC50.
Setting [2] is: LPA 20:4 readout, read-out: Inhibitory activity against ATX receptor, LPA 20:4 IC50.

Each structure is given as a SMILES string. Where two headings read alike, the source gives them in different places.

Consider `C#Cc1ccc2c(c1)C[C@@H](Nc1ncc(-c3nnc(CC(=O)N4CCc5[nH]nnc5C4)o3)cn1)C2` (single isomer, unassigned) [Compound 40], for which the IC50 (in general, the concentration needed to halve the response being measured) under setting [1] was 1.51 nM and the 50% inhibitory concentration (IC50) under setting [2] amounted to 1.56 nM.

With `O=C(Cc1nnc(-c2cnc(N[C@H]3Cc4ccc(-c5ccoc5)cc4C3)nc2)o1)N1CCc2[nH]nnc2C1` (single isomer, unassigned) [Compound 42], the IC50 reads like this: under setting [1], 2.86 nM; under setting [2], 2.69 nM.

As for `O=C(Cn1cc(-c2cnc(NC3Cc4ccccc4C3)nc2)c(OC2CC2)n1)N1CCc2[nH]nnc2C1` [Compound 1, 2-(3-cyclopropoxy-4-(2-((2,3-dihydro-1H-inden-2-yl)amino)pyrimidin-5-yl)-1H-pyrazol-1-yl)-1-(1,4,6,7-tetrahydro-5H-[1,2,3]triazolo[4,5-c]pyridin-5-yl)ethan-1-one], the IC50 under setting [1] stood at 8.53 nM.

Take `N#Cc1nn(CC(=O)N2CCc3[nH]nnc3C2)cc1-c1cnc(NC2Cc3ccccc3C2)nc1` [Compound 2, 4-(2-((2,3-dihydro-1H-inden-2-yl)amino)pyrimidin-5-yl)-1-(2-oxo-2-(1,4,6,7-tetrahydro-5H-[1,2,3]triazolo[4,5-c]pyridin-5-yl)ethyl)-1H-pyrazole-3-carbonitrile]: the IC50 runs as follows: under setting [1], 6.19 nM; under setting [2], 6.85 nM.

As to `CNC(=O)c1nn(CC(=O)N2CCc3[nH]nnc3C2)cc1-c1cnc(NC2Cc3ccccc3C2)nc1` [Compound 3, 4-(2-((2,3-dihydro-1H-inden-2-yl)amino)pyrimidin-5-yl)-N-methyl-1-(2-oxo-2-(1,4,6,7-tetrahydro-5H-[1,2,3]triazolo[4,5-c]pyridin-5-yl)ethyl)-1H-pyrazole-3-carboxamide], the IC50 under setting [1] amounted to 5.68 nM and the IC50 under setting [2] turned out to be 5.65 nM.

Regarding `O=C(N1CCc2[nH]nnc2C1)C1(c2nnc(-c3cnc(NC4Cc5ccccc5C4)nc3)o2)CC1` [Compound 4, (1-(5-(2-((2,3-dihydro-1H-inden-2-yl)amino)pyrimidin-5-yl)-1,3,4-oxadiazol-2-yl)cyclopropyl)(1,4,6,7-tetrahydro-5H-[1,2,3]triazolo[4,5-c]pyridin-5-yl)methanone], the IC50 came out at 4.93 nM under setting [1] and 5.33 nM under setting [2].

For the molecule `O=C(Cc1nnc(-c2cnc(NC3Cc4ccc(C5CC5)cc4C3)nc2)o1)N1CCc2[nH]nnc2C1` (centres unmarked) [Compound 7, 2-(5-(2-((5-cyclopropyl-2,3-dihydro-1H-inden-2-yl)amino)pyrimidin-5-yl)-1,3,4-oxadiazol-2-yl)-1-(1,4,6,7-tetrahydro-5H-[1,2,3]triazolo[4,5-c]pyridin-5-yl)ethan-1-one], the IC50 runs as follows: under setting [1], 7.46 nM; under setting [2], 7.67 nM.

On to `N#Cc1ccc2c(c1)CC(Nc1ncc(-c3nnc(CC(=O)N4CCc5[nH]nnc5C4)o3)cn1)C2` (centres unmarked) [Compound 8, 2-((5-(5-(2-(6,7-dihydro-1H-[1,2,3]triazolo[4,5-c]pyridin-5(4H)-yl)-2-oxoethyl)-1,3,4-oxadiazol-2-yl)pyrimidin-2-yl)amino)-2,3-dihydro-1H-indene-5-carbonitrile], for which the IC50 turned out to be 5.94 nM under setting [1] and 6.18 nM under setting [2].

Consider `O=C(Cc1nnc(-c2cnc(NC3Cc4ccc(C(F)F)cc4C3)nc2)o1)N1CCc2[nH]nnc2C1` (centres unmarked) [Compound 9, 2-(5-(2-((5-(difluoromethyl)-2,3-dihydro-1H-inden-2-yl)amino)pyrimidin-5-yl)-1,3,4-oxadiazol-2-yl)-1-(1,4,6,7-tetrahydro-5H-[1,2,3]triazolo[4,5-c]pyridin-5-yl)ethan-1-one], for which the IC50 under setting [1] turned out to be 3.26 nM and the IC50 under setting [2] was determined as 3.65 nM.

Regarding `O=C(NC1(c2nnc(-c3cnc(NC4Cc5ccccc5C4)nc3)o2)CC1)N1CCc2[nH]nnc2C1` [Compound 14, N-(1-(5-(2-((2,3-dihydro-1H-inden-2-yl)amino)pyrimidin-5-yl)-1,3,4-oxadiazol-2-yl)cyclopropyl)-1,4,6,7-tetrahydro-5H-[1,2,3]triazolo[4,5-c]pyridine-5-carboxamide], the IC50 came out at 5.97 nM under setting [1] and 6.56 nM under setting [2].

Turning to `O=C(N1CCc2[nH]nnc2C1)C1(c2nnc(-c3cnc(NC4Cc5ccccc5C4)nc3)o2)CCC1` [Compound 20, (1-(5-(2-((2,3-dihydro-1H-inden-2-yl)amino)pyrimidin-5-yl)-1,3,4-oxadiazol-2-yl)cyclobutyl)(1,4,6,7-tetrahydro-5H-[1,2,3]triazolo[4,5-c]pyridin-5-yl)methanone], the IC50 reads like this: under setting [1], 3.65 nM; under setting [2], 3.76 nM.

Turning to `N#Cc1nc(CC(=O)N2CCc3[nH]nnc3C2)oc1-c1cnc(NC2Cc3ccccc3C2)nc1` [Compound 22, 5-(2-((2,3-dihydro-1H-inden-2-yl)amino)pyrimidin-5-yl)-2-(2-oxo-2-(1,4,6,7-tetrahydro-5H-[1,2,3]triazolo[4,5-c]pyridin-5-yl)ethyl)oxazole-4-carbonitrile], the IC50 runs as follows: under setting [1], 4.97 nM; under setting [2], 6.84 nM.

In the case of `O=C(Cc1nnc(-c2cnc(NC3Cc4cscc4C3)nc2)o1)N1CCc2[nH]nnc2C1` [Compound 26, 2-(5-(2-((5,6-dihydro-4H-cyclopenta[c]thiophen-5-yl)amino)pyrimidin-5-yl)-1,3,4-oxadiazol-2-yl)-1-(1,4,6,7-tetrahydro-5H-[1,2,3]triazolo[4,5-c]pyridin-5-yl)ethan-1-one], the IC50 worked out at 8.73 nM under setting [1] and 8.86 nM under setting [2].

As for `CC(F)(C(=O)N1CCc2[nH]nnc2C1)c1nnc(-c2cnc(NC3Cc4ccccc4C3)nc2)o1` (centres unmarked) [Compound 27, 2-(5-(2-((2,3-dihydro-1H-inden-2-yl)amino)pyrimidin-5-yl)-1,3,4-oxadiazol-2-yl)-2-fluoro-1-(1,4,6,7-tetrahydro-5H-[1,2,3]triazolo[4,5-c]pyridin-5-yl)propan-1-one], the IC50 reads like this: under setting [1], 6.26 nM; under setting [2], 7.08 nM.

As for `O=C(Cc1nnc(-c2cnc(NC3Cc4ccc(-c5ccoc5)cc4C3)nc2)o1)N1CCc2[nH]nnc2C1` (centres unmarked) [Compound 28, 2-(5-(2-((5-(furan-3-yl)-2,3-dihydro-1H-inden-2-yl)amino)pyrimidin-5-yl)-1,3,4-oxadiazol-2-yl)-1-(1,4,6,7-tetrahydro-5H-[1,2,3]triazolo[4,5-c]pyridin-5-yl)ethan-1-one], the half-inhibitory concentration (IC50) by setting is: under setting [1], 5.24 nM; under setting [2], 5.4 nM.

`O=C(Cc1nnc(-c2cnc(NC3Cc4cc5c(cc4C3)OCO5)nc2)o1)N1CCc2nn[nH]c2C1` [Compound 29, 2-(5-(2-((6,7-dihydro-5H-indeno[5,6-d][1,3]dioxol-6-yl)amino)pyrimidin-5-yl)-1,3,4-oxadiazol-2-yl)-1-(3,4,6,7-tetrahydro-5H-[1,2,3]triazolo[4,5-c]pyridin-5-yl)ethan-1-one]: the IC50 runs as follows: under setting [1], 2.75 nM; under setting [2], 3.27 nM.

With `O=C(Cc1nnc(-c2cnc(NC3Cc4cc5c(cc4C3)CC5)nc2)o1)N1CCc2[nH]nnc2C1` [Compound 30, 2-(5-(2-((2,4,5,6-tetrahydro-1H-cyclobuta[f]inden-5-yl)amino)pyrimidin-5-yl)-1,3,4-oxadiazol-2-yl)-1-(1,4,6,7-tetrahydro-5H-[1,2,3]triazolo[4,5-c]pyridin-5-yl)ethan-1-one], the IC50 is, setting by setting: under setting [1], 1.58 nM; under setting [2], 1.92 nM.

Turning to `C#Cc1ccc2c(c1)CC(Nc1ncc(-c3nnc(CC(=O)N4CCc5[nH]nnc5C4)o3)cn1)C2` (centres unmarked) [Compound 31, 2-(5-(2-((5-ethynyl-2,3-dihydro-1H-inden-2-yl)amino)pyrimidin-5-yl)-1,3,4-oxadiazol-2-yl)-1-(1,4,6,7-tetrahydro-5H-[1,2,3]triazolo[4,5-c]pyridin-5-yl)ethan-1-one], the half-maximal inhibitory concentration (IC50) was found to be 2.61 nM under setting [1] and 2.85 nM under setting [2].
